# Experimental data as given in patent US9815790B2, “Chemically modified quinoline and quinolone derivatives useful as CB-1 inverse agonists” (Janssen Pharmaceutica NV, priority 2015, dated 2017).
# Key:
# [1] = target: CB-1 receptor (Human Cannabinoid receptor 1) (Homo sapiens (Human), UniProt P21554); assay: cAMP HTRF assay, CB-1 inverse agonism in stably transfected HEK-293 cells; format: cell-based; settings: 250 nM Forskolin, mean where tested more than once, read-out: CB1 EC50
# Source text: (§1) CB1 and CB2 receptors are Gi-coupled GPCR. Activation of CB1 and CB2 receptors results in a decrease in cAMP production. An inverse agonist of the CB1 or CB2 receptor results in the opposite effect, an increase of cAMP production. The principle of this assay is based on HTRF® technology (Homogeneous Time-Resolved Fluorescence). The method is a competitive immunoassay between native cAMP produced by cells and the cAMP labeled with the fluorophore d2. The tracer binding is quantified by a Mab anti-cAMP labeled with Eu3+TBP-NHS Cryptate (supplied as part of the assay kit). The specific signal (i.e. energy transfer) is inversely proportional to the concentration of cAMP in the standard or sample.
# (§2) Human CB (Cannabinoid receptor 1) was stably transfected in HEK-293 cells (DiscoveRx, cat: 93-0200C1). Human CB2R (Cannabinoid receptor 2) was stably transfected in HEK-293 cells (DiscoveRx, cat: 93-0201C1). Cell cultures were maintained in media: DMEM (Invitrogen Cat#12430-054) supplemented with 10% HI FBS (Invitrogen Cat#16140-071), 1% L-glutamine (Invitrogen Cat#25030-081), 0.2 mg/mL Hygromycin B (Invitrogen Cat#10687-010), 600 μg/mL G418 (Invitrogen Cat#10131-035), and 1× Penn/Strep (Invitrogen 15140-122). After cell expansion, aliquots were cryo-stored in media containing 5% DMSO (Pierce Cat#20684).
# (§3) One day prior to experiments media was warmed to 37° C. and the cryo-stored cells were thawed in a 37° C. water bath. The cells were then added to media (10× volume) and the mixture was centrifuged at 1000 RPM for 5 min. The supernate was removed and the cells were re-suspended in media. A sample of the cell suspension was evaluated on a Cedex XS automated cell counter (Innovatis Systems) to determine viable cells/mL. Additional media was added to the cells to achieve a final cell density of 4E5 cells/mL. The cells were then plated into 384 well PDL white solid bottom plates (Greiner, Cat#781945) at 20 μL per well using a Multidrop (Thermo Scientific). Cells were removed from Row P (location of cAMP standards). Two columns of cells were plated into a clear bottom 384 well PDL coated plate (Greiner, Cat#781944) to view confluence the day of the assay. The cell plates were lidded and stored for 15 minutes in a hood, then transferred to an incubator (37° C., 5% CO2, 95% humidity) overnight.
# (§4) Test compounds were solubilized in DMSO at 10 mM or for pegylated compounds 4 or 1 mM. DMSO was added to all wells of 384 well V bottom polystyrene plate (Greiner, Cat#781280) except to columns 1 and 13, rows O and P and wells M13-M23 and N13-N23. Test compounds (60 μL, 10 mM or 4 mM or 1 mM) were added to Column 1 and 13 (A1 through N1 and A13 through L13). Test compounds were serially diluted ⅓ by transferring and mixing 20 μL sample with 40 μL DMSO.
# (§5) DMSO (40 μL) was added to wells of 384 well V bottom polystyrene plate: O2 through O11, M14 through M23, N14 through N23, and O14 through O23. AM630 (also known as [6-iodo-2-methyl-1-[2-(4-morpholinyl)ethyl]-1H-indol-3-yl](4-methoxyphenyl)-methanone, Cayman Chemical, Cat#10006974) (60 μL, 10 mM) was added to 01; and 1-(2,4-dichlorophenyl)-7-[(4-fluorophenyl)methylene]-4,5,6,7-tetrahydro-N-1-piperidinyl-1H-indazole-3-carboxamide (60 μL, 10 mM) was added to N13. The control was serially diluted ⅓ by transferring and mixing 20 μL sample with 40 μL DMSO. This process resulted 11 doses per control, 10 mM to 0.17 μM.
# (§6) Cells plated the day prior to the assay in clear bottom plates were viewed on an inverse microscope to ensure confluency in the range of 60-75%. […]
# [2] = target: CB-2 receptor (Human CB2R, Cannabinoid receptor 2) (Homo sapiens (Human), UniProt P34972); assay: cAMP HTRF assay, CB-2 in stably transfected HEK-293 cells; format: cell-based; settings: 250 nM Forskolin, mean where tested more than once, read-out: CB2 EC50
# Source text: as §1, §2, §3, §4, §5, §6
# CB-1 receptor (Human Cannabinoid receptor 1), sequence (P21554 whole entry): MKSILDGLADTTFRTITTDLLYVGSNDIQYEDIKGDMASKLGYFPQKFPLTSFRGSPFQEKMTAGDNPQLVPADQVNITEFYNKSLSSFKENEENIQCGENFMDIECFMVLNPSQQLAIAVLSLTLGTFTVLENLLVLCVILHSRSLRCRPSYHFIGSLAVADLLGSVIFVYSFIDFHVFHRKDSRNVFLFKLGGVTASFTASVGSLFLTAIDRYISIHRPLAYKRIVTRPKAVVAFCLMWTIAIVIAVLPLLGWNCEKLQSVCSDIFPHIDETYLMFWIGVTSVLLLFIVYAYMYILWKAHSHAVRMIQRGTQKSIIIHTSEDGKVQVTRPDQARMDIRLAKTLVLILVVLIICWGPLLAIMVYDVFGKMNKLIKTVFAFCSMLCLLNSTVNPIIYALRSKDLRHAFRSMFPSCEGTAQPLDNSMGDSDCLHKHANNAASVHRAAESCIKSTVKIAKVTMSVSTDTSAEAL
# CB-2 receptor (Human CB2R, Cannabinoid receptor 2), sequence (P34972 whole entry): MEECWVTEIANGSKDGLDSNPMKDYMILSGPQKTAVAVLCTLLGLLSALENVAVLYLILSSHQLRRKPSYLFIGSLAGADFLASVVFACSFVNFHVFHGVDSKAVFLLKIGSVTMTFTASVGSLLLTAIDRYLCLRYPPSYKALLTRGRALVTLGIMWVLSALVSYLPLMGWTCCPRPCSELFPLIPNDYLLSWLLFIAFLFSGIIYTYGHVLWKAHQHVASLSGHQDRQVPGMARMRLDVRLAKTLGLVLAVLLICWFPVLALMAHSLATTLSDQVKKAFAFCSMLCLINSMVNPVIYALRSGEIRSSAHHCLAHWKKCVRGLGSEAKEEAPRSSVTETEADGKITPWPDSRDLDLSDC
SMILES,EC50 [1],EC50 [2]
"COCCOCCOc1ccc(Nc2cc(=O)[nH]c3ccc(C(c4ccc(Cl)cc4)c4ccc(Cl)cc4)cc23)cc1 [Cpd 20, 6-[bis(4-chlorophenyl)methyl]-4-([4-[2-(2-methoxyethoxy)ethoxy]phenyl]amino)quinolin-2-ol]",47 nM,3.3 µM
COCCOCCOCCOCCOCCOCCOCCOCCOCCOCCOCCOCCNC(=O)OCc1ccc(OCCOCCOCCOCCOCCOCCOc2cc(NC3CCN(S(=O)(=O)C(F)(F)F)CC3)c3cc(C(c4ccc(Cl)cc4)c4ccc(Cl)cc4)ccc3n2)cc1 [Cpd 13],240 nM,4.06 µM
COCCOCCOCCOCCOCCOCCOCCOCCOCCOCCOCCOCCNC(=O)CCCCCOc1cc(NC2CCN(S(=O)(=O)C(F)(F)F)CC2)c2cc(C(c3ccc(Cl)cc3)c3ccc(Cl)cc3)ccc2n1 [Cpd 6],19 nM,3 µM
COCCOCCOCCOCCn1c(=O)cc(NC2CCN(S(=O)(=O)C(F)(F)F)CC2)c2cc(C(c3ccc(Cl)cc3)c3ccc(Cl)cc3)ccc21 [Cpd 21],390 nM,> 10 µM
O=S(=O)(N1CCC(Nc2cc(OCCOCCOCCOCCOCCOCCOc3ccc(CO)cc3)nc3ccc(C(c4ccc(Cl)cc4)c4ccc(Cl)cc4)cc23)CC1)C(F)(F)F [Cpd 11],61 nM,3.11 µM
O=C(O)CCOCCOCCOCCOCCOCCOCCOCCOCCOCCOCCOCCOCCOc1cc(C(c2ccc(Cl)cc2)c2ccc(Cl)cc2)cc2c(NC3CCN(S(=O)(=O)C(F)(F)F)CC3)ccnc12 [Cpd 17],77 nM,0.74 µM
O=S(=O)(N1CCC(Nc2cc(OCCOCCOCCO)nc3ccc(C(c4ccc(Cl)cc4)c4ccc(Cl)cc4)cc23)CC1)C(F)(F)F [Cpd 8],52 nM,> 10 µM
NNC(=O)CCOCCOCCOCCOCCOCCOCCOCCOCCOCCOCCOCCOCCNC(=O)OCCOCCOCCOc1cc(NC2CCN(S(=O)(=O)C(F)(F)F)CC2)c2cc(C(c3ccc(Cl)cc3)c3ccc(Cl)cc3)ccc2n1 [Cpd 12],94 nM,5.4 µM
O=S(=O)(N1CCC(Nc2cc(OCCOCCOCCOCCOCCOCCO)nc3ccc(C(c4ccc(Cl)cc4)c4ccc(Cl)cc4)cc23)CC1)C(F)(F)F [Cpd 9],150 nM,> 10 µM
